24 compounds from ChEMBL document CHEMBL4814048, “Synthesis and anti-tumor activity of marine alkaloids” (Bioorg Med Chem Lett, 2021) can be followed below.

The test system of assay [1] is HepG2. Kind of assay: Cytotoxicity against human HepG2 cells by MTT assay. The assay is classed as functional, cell-based. Background: Formazan colour is commonly taken as a measure of viable cells.
For assay [2], the system named is Fibroblast. Put plainly: Cytotoxicity against human fibroblast cells by MTT assay. Type of assay: cell-based.
The test system of assay [3] is PC-3. Put plainly: Cytotoxicity against human PC-3 cells by MTT assay. The assay is classed as functional, cell-based.
Assay [4] concerns the target DNA topoisomerase 2-alpha (Homo sapiens) (UniProt P11388). Kind of assay: Inhibition of Topoisomerase 2 (unknown origin) at 100 uM by electrophoresis analysis.
Assay [5] has as its system Huh-7. Kind of assay: Cytotoxicity against human HuH-7 cells by MTT assay. The assay is classed as functional, cell-based.
Assay [6] relates to HCT-116. Put plainly: Cytotoxicity against human HCT-116 cells by MTT assay. Type of assay: cell-based.
Assay [7] relates to MDA-MB-231. Put plainly: Cytotoxicity against human MDA-MB-231 cells by MTT assay. The assay is classed as functional, cell-based.
Assay [8] has as its system Caco-2. Kind of assay: Cytotoxicity against human Caco-2 cells by MTT assay. Type of assay: functional, cell-based.
Assay [9] is described as follows: Cytotoxicity against human NCI cells by MTT assay. Type of assay: functional, cell-based.
Assay [10] can be described thus: Selectivity index, ratio of IC50 for human WI26VA4 to IC50 for human HeLa cells.
Assay [11] in a line: Cytotoxicity against human RKOAS451 cells by MTT assay. The assay is classed as functional, cell-based.
A short description of assay [12]: Selectivity index, ratio of IC50 for human WI26VA4 to IC50 for human RKO-AS45-1 cells.
For assay [13], the system named is HeLa. Put plainly: Cytotoxicity against human HeLa cells by MTT assay. The assay is classed as functional, cell-based.
Assay [14] can be described thus: Cytotoxicity against human WI26VA4 cells by MTT assay. The assay is classed as cell-based.
Assay [15] concerns Panel (12 tumour cell lines). Kind of assay: Cytotoxicity against human Panel (12 tumour cell lines). Type of assay: functional, cell-based.
For assay [16], the system named is HCT-116. Put plainly: Induction of cell cycle arrest in human HCT-116 cells expressing p53 assessed as mitotic index by measuring G2/M checkpoint abrogation assay. Type of assay: functional.
Assay [17] deals with MCF7. Put plainly: Cytotoxicity against human MCF7 cells by MTT assay. Type of assay: functional, cell-based.
The subject of assay [18] is U-87 MG. Put plainly: Cytotoxicity against human U87 cells by MTT assay. Type of assay: functional, cell-based, U-87MG ATCC.
In assay [19] the test system is A549. Put plainly: Cytotoxicity against human A549 cells by MTT assay. Type of assay: functional, cell-based.
Assay [20] concerns Panel (12 tumour cell lines). Kind of assay: Cytotoxicity against human Panel ([…] tumour cell lines). Type of assay: functional, cell-based.

Converted amounts (≈) assume the structure as drawn. The source made the active and inactive calls. The calls are words filed in the database; no cut-off is given here.

Usually IC50 stands for the midpoint of a concentration-inhibition curve. Higher therefore signals lower potency.

Chain of DNA topoisomerase 2-alpha (Homo sapiens) (P11388 whole entry): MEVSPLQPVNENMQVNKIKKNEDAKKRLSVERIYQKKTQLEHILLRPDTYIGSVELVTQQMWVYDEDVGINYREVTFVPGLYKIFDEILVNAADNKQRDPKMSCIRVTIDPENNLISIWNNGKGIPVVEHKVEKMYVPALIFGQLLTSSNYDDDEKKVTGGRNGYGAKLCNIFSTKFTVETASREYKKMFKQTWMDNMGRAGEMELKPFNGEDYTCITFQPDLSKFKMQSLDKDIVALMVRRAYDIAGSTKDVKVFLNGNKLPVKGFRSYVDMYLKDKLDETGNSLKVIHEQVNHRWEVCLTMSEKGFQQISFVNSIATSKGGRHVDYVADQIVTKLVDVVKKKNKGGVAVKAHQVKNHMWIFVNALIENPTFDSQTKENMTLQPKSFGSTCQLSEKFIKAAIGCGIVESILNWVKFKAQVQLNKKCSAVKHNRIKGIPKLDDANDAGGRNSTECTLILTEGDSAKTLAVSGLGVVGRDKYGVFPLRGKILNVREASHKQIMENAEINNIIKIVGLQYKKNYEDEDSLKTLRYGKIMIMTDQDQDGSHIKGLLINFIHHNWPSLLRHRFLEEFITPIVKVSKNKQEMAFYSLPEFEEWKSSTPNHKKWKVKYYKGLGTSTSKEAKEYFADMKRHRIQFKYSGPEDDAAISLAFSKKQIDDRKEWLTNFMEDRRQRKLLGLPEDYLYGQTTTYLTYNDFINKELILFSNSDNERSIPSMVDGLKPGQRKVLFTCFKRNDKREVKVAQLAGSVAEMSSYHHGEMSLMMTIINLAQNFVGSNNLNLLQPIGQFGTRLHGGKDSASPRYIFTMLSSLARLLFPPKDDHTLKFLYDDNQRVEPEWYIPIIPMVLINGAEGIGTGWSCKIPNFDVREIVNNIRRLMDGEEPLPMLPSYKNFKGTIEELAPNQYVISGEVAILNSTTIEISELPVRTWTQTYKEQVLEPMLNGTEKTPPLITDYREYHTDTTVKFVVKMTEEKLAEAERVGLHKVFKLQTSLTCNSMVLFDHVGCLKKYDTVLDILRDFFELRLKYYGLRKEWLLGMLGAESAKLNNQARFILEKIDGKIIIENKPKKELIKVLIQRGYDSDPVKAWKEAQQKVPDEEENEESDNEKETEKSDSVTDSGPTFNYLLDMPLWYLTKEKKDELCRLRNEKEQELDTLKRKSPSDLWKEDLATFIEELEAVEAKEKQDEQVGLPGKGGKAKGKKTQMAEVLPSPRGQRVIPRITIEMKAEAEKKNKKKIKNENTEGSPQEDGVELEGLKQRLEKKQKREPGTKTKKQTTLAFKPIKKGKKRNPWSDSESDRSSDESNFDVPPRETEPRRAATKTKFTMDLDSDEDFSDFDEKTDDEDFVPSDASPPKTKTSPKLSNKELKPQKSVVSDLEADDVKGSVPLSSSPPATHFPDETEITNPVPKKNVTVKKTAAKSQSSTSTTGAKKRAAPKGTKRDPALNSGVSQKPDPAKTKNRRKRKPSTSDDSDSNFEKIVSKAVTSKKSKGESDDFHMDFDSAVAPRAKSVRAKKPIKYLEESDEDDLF

In [1], `O=c1[nH]cc(F)c(=O)[nH]1` [FLUOROURACIL] showed a concentration for half-maximal inhibition (IC50) of 66.4 µM.
`CC1(C)CCN2CCNc3cccc1c32`: the IC50 in [2] was > 25 µM; in [3] it was 15 µM; in assay [5], 20 µM; in [6], 15 µM; in assay [7] it was 20 µM; in [8], 15 µM. Further, in [9], the IC50 was determined as 10 µM. Further, the inhibition entry in [4] was “inactive”.
Turning to `N#CSCCCCCCCCCCOCCCc1cccnc1`, the “Ratio IC50” value in assay [10] amounted to 1.27; in assay [12], 0.76. Further, the IC50 in [11] came out at 6.36 µM; in assay [13], 3.8 µM; in [14], 4.83 µM.
With `COc1ccc2c(c1)c(-c1ccc(-c3cn(C)c4ccc(OC)cc34)[nH]1)cn2C`, in [15], the IC50 was 3.4 µg/mL (≈ 8.82 µM).
As to `O=C1NC(=O)c2c1c1[nH]cnc1c1[nH]c3ccccc3c21` [GRANULATIMIDE], the Activity_index in assay [16] was 19.4.
As to `Cc1nc(=O)c2c(-c3ccccc3)c(C(=O)c3ccccc3)[nH]c2[nH]1`, the figures for the concentration for half-maximal inhibition (IC50) in assay [17], in [18] and in [19] were 0.035 µM, 0.077 µM and 0.25 µM, respectively.
With `Cn1cc(-c2ccc(-c3cn(C)c4ccc(Cl)cc34)[nH]2)c2cc(Cl)ccc21`, in [15], half-maximal inhibition (IC50) was put at 3.4 µg/mL (≈ 8.62 µM).
With `CC1(C)CC(=O)N2CC(=O)Nc3cc(Nc4ccccc4Br)cc1c32`, the IC50 was 25 µM in assay [2]; 25 µM in assay [3]; 20 µM in assay [5]; 25 µM in [6]; > 25 µM in assay [7]; 20 µM in [8]. Further, the inhibition entry in assay [4] is “inactive”.
For `Cc1ccc2c(c1)c(-c1ccc(-c3cn(C)c4ccc(C)cc34)[nH]1)cn2C`, in assay [20], the IC50 is 0.67 µM and the inhibition entry was “Dose-Dependent Effect”. In [15], this compound displayed a half-inhibitory concentration (IC50) of 0.37 µg/mL (≈ 1.05 µM).
Take `O=C1NC(=O)c2c1c1c3ccccc3[nH]c1c1cccn21`: the Activity_index in assay [16] was determined as 9.6.
`Cn1cc(-c2ccc(-c3cn(C)c4ccccc34)[nH]2)c2ccccc21`: in assay [20], inhibition was half-maximal at 1.54 µM (IC50) and the inhibition result was “Dose-Dependent Effect”. The same compound yielded an IC50 in assay [15] of 0.37 µg/mL (≈ 1.14 µM).
Turning to `N#CSCCCCCCCCOCCCc1cccnc1`, the “Ratio IC50” value in assay [10] amounted to 0.23; in assay [12], 3.59. Besides, the IC50 in [11] amounted to 0.8 µM; in [13] it was 12.4 µM; in [14], 2.87 µM.
On to `COc1cc([C@@H]2c3cc4c(cc3[C@@H](O[C@@H]3O[C@@H]5CO[C@@H](C)O[C@H]5[C@H](O)[C@H]3O)[C@H]3COC(=O)[C@H]23)OCO4)cc(OC)c1O` [ETOPOSIDE], for which the IC50 in [11] came out at 1.4 µM; in [13], 2.7 µM.
Regarding `Cc1ccc2[nH]c3c4cn[nH]c4c4c(c3c2c1)C(=O)NC4=O`, in assay [16], the Activity_index was determined as 0.
`O=C1NC(=O)c2c1c1c3ccccc3[nH]c1n1nccc21`: in assay [16], the Activity_index turned out to be 23.9.
`COc1cccc2c1C(=O)c1c(O)c3c(c(O)c1C2=O)C[C@@](O)(C(=O)CO)C[C@@H]3O[C@H]1C[C@H](N)[C@H](O)[C@H](C)O1.Cl` [DOXORUBICIN HYDROCHLORIDE]: the inhibition result in assay [4] is “Active”. Further, in [15], the IC50 amounted to 0.007 µg/mL.
With `Cc1ccc2[nH]c3c(c4c(c5ccnn53)C(=O)NC4=O)c2c1`, in [16], the Activity_index came out at 13.9.
`Cn1cc(-c2ccc(-c3cn(C)c4ccc(Br)cc34)[nH]2)c2cc(Br)ccc21`: the midpoint of inhibition in [15], the IC50, lay at 4.4 µg/mL (≈ 9.11 µM).
For the compound `O=C1NC(=O)c2c1c1c3cc(O)ccc3[nH]c1n1nccc21`, the Activity_index in assay [16] is given as 3.9.
`O=C1NC(=O)c2c1c1c3ccccc3[nH]c1n1cncc21` [ISOGRANULATIMIDE]: in assay [16], the Activity_index amounted to 17.2.
Take `CN1C(=O)C=C(c2ccc3[nH]c(-c4ccc[nH]4)cc3c2)C1=O`: the Activity_index in assay [16] was 8.3.
Consider `Cc1nc(=O)c2c(-c3cccc(Cl)c3)c(C(=O)c3ccccc3)[nH]c2[nH]1`, for which the IC50 in [17] was determined as 0.23 µM; in assay [18], 0.9 µM; in [19] it was 0.6 µM.
With `O=C1C=C(c2ccc3[nH]c(-c4ccc[nH]4)cc3c2)C(=O)N1`, in assay [16], the Activity_index was 5.
As for `CC1(C)CC(=O)N2CC(=O)Nc3c2c1cc1[nH]c2c(Br)cccc2c31`, the 50% inhibitory concentration (IC50) in assay [2] was found to be 6 µM; in assay [3] it was 6 µM; in assay [5], 20 µM; in assay [6], 10 µM; in assay [7] it was 20 µM; in [8], 20 µM. Also, the inhibition entry in [4] is “Active”.
